Laboratory results: PubChem BioAssay (NCI)
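1) Cells in 96-well plates. 2) Compound, 48 h, 5 concentrations. 3) Linear interpolation between surrounding doses. 4) Unreached endpoint = highest concentration. TGI denotes the concentration required for complete inhibition of growth.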

Assays:
Test in all cases: NCI anticancer screen, dose series, 48 h
A549 NSCLC = tested on: A549 NSCLC
CAKI-1 renal = tested on: CAKI-1 renal
COLO 205 colon = tested on: COLO 205 colon
HCC-2998 colon = tested on: HCC-2998 colon
HCT-116 colon = tested on: HCT-116 colon
HCT-15 colon = tested on: HCT-15 colon
HOP-62 NSCLC = tested on: HOP-62 NSCLC
HT29 colon = tested on: HT29 colon
MALME-3M melanoma = tested on: MALME-3M melanoma
MCF7 breast = tested on: MCF7 breast
NCI-H460 lung = tested on: NCI-H460 lung
OVCAR-5 ovarian = tested on: OVCAR-5 ovarian
RXF 393 renal = tested on: RXF 393 renal
SK-OV-3 ovarian = tested on: SK-OV-3 ovarian
SNB-75 CNS = tested on: SNB-75 CNS
T-47D breast = tested on: T-47D breast
UACC-257 melanoma = tested on: UACC-257 melanoma
UACC-62 melanoma = tested on: UACC-62 melanoma
UO-31 renal = tested on: UO-31 renal

Measured: TGI

O=C(c1ccco1)C1CC(c2ccc3ccccc3c2O)=NN1 (centres undefined)
> 100 µM: all assays above
